Drawing on ChEMBL document CHEMBL1156893, “Structure-activity relationships amongst 4-position quinoline methanol antimalarials that inhibit the growth of drug sensitive and resistant strains of Plasmodium falciparum” (Bioorg Med Chem Lett, 2010), this text covers survival time for eight molecules.

The test system of this experiment is Plasmodium berghei. Put plainly: Antimalarial activity against Plasmodium berghei infected in ICR mice (Mus musculus) assessed as delay in mortality at 160 mg/kg, perorally for 3 days. The arrangement: dose 160 mg/kg. The experiment is classed as functional, organism-based.

Turning to `COCCNCC(O)c1cc(C(F)(F)F)nc2c(C(F)(F)F)cccc12` (stereo not drawn), the survival time was found to be 15 days. The value for `OC(c1cc(C(F)(F)F)nc2c(C(F)(F)F)cccc12)C1CCCCN1` (racemic) was 17 days; that for `CSCCCNCC(O)c1cc(C(F)(F)F)nc2c(C(F)(F)F)cccc12` (stereo not drawn) was 17 days. The value for `CCCCNCC(O)c1cc(C(F)(F)F)nc2c(C(F)(F)F)cccc12` (stereo not drawn) was 8 days; that for `CC1C(NCC(O)c2cc(C(F)(F)F)nc3c(C(F)(F)F)cccc23)CC2CC1C2(C)C` (stereo not drawn) was 3 days; that for `COCCCNCC(O)c1cc(C(F)(F)F)nc2c(C(F)(F)F)cccc12` (stereo not drawn) was 9 days. The value for `CNCC(O)c1cc(C(F)(F)F)nc2c(C(F)(F)F)cccc12` (stereo not drawn) was 25 days. Regarding `CC(C)CC(C)NCC(O)c1cc(C(F)(F)F)nc2c(C(F)(F)F)cccc12` (stereo not drawn), the survival time was found to be 2 days.
